# What was measured:
# [1] = test system: Pseudomonas syringae pv. phaseolicola HB-9 biofilm; assay: PspHB-9 biofilm susceptibility to Oxysilver and copper sulfate
# [2] = test system: Pseudomonas syringae pv. phaseolicola HB-9 planktonic; assay: PspHB-9 planktonic susceptibility to Oxysilver and copper sulfate
smiles,measurement,setting,value
O=S(=O)([O-])[O-].[Cu+2] [Copper sulfate],"Bacteria/biofilm growth PspHB-9 Biofilm, cell counts",[1]; 1250 ppm,5.15 log10
same,"Bacteria/biofilm growth PspHB-9 Biofilm, cell counts",[1]; 2900 ppm,0 log10
same,"Bacteria/biofilm growth PspHB-9 Biofilm, cell counts",[1]; 4600 ppm,0 log10
same,concentration needed to be effective,[1]; planktonic and biofilm PspHB-9,at least 11460 ppm
same,"Bacteria growth PspHB-9 Planktonic, cell counts",[2]; 1250 ppm,2.95 log10
same,"Bacteria growth PspHB-9 Planktonic, cell counts",[2]; 2900 ppm,0 log10
same,"Bacteria growth PspHB-9 Planktonic, cell counts",[2]; 4600 ppm,0 log10
